In general, IC50 refers to the concentration that gives 50% inhibition.

Our source for the IC50 values is US20090311217A1, “3-SUBSTITUTED-1H-INDOLE COMPOUNDS, THEIR USE AS MTOR KINASE AND PI3 KINASE INHIBITORS, AND THEIR SYNTHESES” (priority 2008, published 2009).

Common to all, as to format: biochemical
The target in one test is PI3K-gamma (Homo sapiens, UniProt P48736). Put plainly: PI3K-gamma fluorescence polarization assay. Particulars: PI3Kγ Avg. IC50. In outline:
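FP displacement read-out: 100 nM GST-GRP1 PH domain plus 5 nM BODIPY-TMR-IP4 added after EDTA stop. Preceding kinase step: 5 ng enzyme, diC8-PI(4,5)P2 2.5 μM, ATP 25 μM, MgCl2 2.5 mM, HEPES 5 mM pH 7, one hour, 25° C.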
(In general: In fluorescence polarisation assays a small probe gives low polarisation when free and higher when bound to something large.)

The target in another test is T1, human TOR (Homo sapiens, UniProt P42345).
T1 construct: FLAG
Put plainly: mTOR enzyme assay (DELFIA, His6-S6K substrate). Particulars: read-out: mTOR Kinase Avg. IC50.

The target in the next test is PI3K-alpha (Homo sapiens, UniProt P42336). Put plainly: PI3K-alpha fluorescence polarization assay. The note with it: read-out: PI3Kα Avg. IC50.
PI3K-alpha, sequence (P42336 whole entry, species assumed): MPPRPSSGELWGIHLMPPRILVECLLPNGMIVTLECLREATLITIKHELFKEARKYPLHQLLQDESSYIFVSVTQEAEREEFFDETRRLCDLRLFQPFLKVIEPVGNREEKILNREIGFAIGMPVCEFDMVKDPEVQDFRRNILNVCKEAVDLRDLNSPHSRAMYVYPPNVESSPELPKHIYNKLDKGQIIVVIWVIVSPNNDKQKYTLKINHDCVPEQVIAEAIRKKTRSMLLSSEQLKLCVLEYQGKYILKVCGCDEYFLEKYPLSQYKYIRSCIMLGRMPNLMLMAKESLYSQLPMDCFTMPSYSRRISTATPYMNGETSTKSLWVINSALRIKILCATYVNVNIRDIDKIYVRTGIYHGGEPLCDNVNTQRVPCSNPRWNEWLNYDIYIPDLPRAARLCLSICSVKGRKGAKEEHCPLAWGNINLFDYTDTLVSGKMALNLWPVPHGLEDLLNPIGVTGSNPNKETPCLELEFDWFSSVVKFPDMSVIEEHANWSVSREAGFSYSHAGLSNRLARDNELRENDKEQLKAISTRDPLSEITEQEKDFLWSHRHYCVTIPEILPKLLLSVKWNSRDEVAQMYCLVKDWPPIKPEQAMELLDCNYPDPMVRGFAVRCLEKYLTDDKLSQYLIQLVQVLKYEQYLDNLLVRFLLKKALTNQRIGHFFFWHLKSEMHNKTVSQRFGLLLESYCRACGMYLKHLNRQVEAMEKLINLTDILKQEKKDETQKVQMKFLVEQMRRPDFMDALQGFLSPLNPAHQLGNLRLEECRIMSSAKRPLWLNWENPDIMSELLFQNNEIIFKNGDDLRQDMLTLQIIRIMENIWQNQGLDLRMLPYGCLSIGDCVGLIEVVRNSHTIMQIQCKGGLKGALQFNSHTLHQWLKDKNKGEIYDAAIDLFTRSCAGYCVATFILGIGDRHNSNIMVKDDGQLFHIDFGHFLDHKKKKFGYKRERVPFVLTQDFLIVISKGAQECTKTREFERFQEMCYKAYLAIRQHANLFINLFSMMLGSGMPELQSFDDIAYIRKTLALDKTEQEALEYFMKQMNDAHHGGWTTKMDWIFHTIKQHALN
PI3K-alpha, sequence (P27986 whole entry partner, species assumed): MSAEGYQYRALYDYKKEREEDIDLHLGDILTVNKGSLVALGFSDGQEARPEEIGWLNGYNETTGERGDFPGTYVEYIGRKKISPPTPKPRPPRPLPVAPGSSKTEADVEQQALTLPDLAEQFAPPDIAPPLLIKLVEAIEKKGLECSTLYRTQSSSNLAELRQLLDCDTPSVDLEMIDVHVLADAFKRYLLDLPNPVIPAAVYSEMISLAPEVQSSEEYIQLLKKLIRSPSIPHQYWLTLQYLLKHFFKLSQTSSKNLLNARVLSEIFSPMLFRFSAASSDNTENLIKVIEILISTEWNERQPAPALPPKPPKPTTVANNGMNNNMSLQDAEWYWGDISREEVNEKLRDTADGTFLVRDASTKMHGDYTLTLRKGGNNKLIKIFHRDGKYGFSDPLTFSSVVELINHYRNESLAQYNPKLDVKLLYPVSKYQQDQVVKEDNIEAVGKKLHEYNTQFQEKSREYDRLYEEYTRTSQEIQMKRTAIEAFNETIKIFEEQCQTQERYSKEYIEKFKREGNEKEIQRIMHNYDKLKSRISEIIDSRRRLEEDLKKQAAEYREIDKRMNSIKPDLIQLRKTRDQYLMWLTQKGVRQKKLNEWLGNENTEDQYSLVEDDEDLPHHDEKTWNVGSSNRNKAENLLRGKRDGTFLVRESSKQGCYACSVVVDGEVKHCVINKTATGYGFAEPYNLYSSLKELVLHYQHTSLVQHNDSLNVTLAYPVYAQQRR

PI3K-gamma, sequence (P48736 whole entry, species assumed, the tested form may be a part): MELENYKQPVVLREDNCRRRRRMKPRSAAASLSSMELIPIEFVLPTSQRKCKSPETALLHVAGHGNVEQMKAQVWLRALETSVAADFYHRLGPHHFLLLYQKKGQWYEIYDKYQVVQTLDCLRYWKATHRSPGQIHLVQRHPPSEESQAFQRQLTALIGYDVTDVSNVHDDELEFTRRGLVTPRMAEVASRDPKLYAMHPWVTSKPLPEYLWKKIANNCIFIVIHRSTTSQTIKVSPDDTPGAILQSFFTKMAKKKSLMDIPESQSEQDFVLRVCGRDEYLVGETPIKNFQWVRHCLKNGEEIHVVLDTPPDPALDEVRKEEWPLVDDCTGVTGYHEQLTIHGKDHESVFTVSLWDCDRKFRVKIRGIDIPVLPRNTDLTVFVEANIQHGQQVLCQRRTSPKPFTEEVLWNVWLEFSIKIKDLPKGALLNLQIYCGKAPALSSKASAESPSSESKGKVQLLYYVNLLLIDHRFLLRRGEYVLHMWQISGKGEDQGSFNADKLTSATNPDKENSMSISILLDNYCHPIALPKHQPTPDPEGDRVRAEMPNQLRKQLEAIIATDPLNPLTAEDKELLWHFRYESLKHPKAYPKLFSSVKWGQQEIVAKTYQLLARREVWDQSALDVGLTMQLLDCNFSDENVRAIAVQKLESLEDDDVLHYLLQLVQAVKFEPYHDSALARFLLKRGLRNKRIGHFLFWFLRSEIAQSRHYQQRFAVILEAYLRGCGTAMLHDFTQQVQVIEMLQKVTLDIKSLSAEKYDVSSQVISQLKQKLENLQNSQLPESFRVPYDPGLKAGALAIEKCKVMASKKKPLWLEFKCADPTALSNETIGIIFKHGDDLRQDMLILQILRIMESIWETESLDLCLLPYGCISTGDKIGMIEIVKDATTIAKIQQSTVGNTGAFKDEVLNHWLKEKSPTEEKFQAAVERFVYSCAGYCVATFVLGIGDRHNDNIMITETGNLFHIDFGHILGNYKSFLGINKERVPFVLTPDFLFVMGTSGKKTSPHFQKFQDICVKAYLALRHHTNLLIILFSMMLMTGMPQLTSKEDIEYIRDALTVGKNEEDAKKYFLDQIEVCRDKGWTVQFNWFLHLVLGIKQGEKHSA

`COc1ccc2c(c1)c(/C=C1\Oc3cc(O)ccc3C1=O)c(C)n2CCN1CCCCC1` [Example 454, (2Z)-6-Hydroxy-2-{[5-methoxy-2-methyl-1-(2-piperidin-1-ylethyl)-1H-indol-3-yl]methylene}-1-benzofuran-3(2H)-one]: the values for the IC50 against PI3K-gamma, at human TOR and on PI3K-alpha were 517 nM, 1300 nM and 32 nM, respectively.
For `CCn1c(C)c(/C=C2\Oc3ccc(NC(=O)Nc4ccc(S(=O)(=O)N(C)CCN(C)C)cc4)cc3C2=O)c2cc(OC)ccc21` [Compound 679, N-[2-(dimethylamino)ethyl]-4-[({(2Z)-2-[(1-ethyl-5-methoxy-2-methyl-1H-indol-3-yl)methylidene]-3-oxo-2,3-dihydro-1-benzofuran-5-yl}carbamoyl)amino]-N-methylbenzenesulfonamide] the same measures were 67.5 nM, 370 nM and 8 nM.
For `CCn1c(C)c(/C=C2\Oc3ccc(NC(=O)Nc4ccc(N(C)CCCN(C)C)cc4)cc3C2=O)c2cc(OC)ccc21` [Compound 653, 1-(4-{[3-(dimethylamino)propyl](methyl)amino}phenyl)-3-{(2Z)-2-[(1-ethyl-5-methoxy-2-methyl-1H-indol-3-yl)methylene]-3-oxo-2,3-dihydro-1-benzofuran-5-yl}urea] the same measures were 21 nM, 125 nM and 4 nM.
Regarding `Cn1c(-c2ccccc2)c(/C=C2\Oc3cccc(O)c3C2=O)c2ccccc21` [Example 442, (2Z)-4-Hydroxy-2-[(1-methyl-2-phenyl-1H-indol-3-yl)methylene]benzofuran-3(2H)-one], the IC50 on PI3K-gamma was over 5100 nM; at human TOR, over 20000 nM; on PI3K-alpha, over 5100 nM.
With `COc1ccc2c(c1)c(/C=C1\Oc3ccc(NC(=O)Nc4cccnc4)cc3C1=O)c(C1CCCC1)n2CCN1CCN(C)CC1` [Compound 638, 1-[(2Z)-2-({2-cyclopentyl-5-methoxy-1-[2-(4-methylpiperazin-1-yl)ethyl]-1H-indol-3-yl}methylene)-3-oxo-2,3-dihydro-1-benzofuran-5-yl]-3-pyridin-3-ylurea], the results for the IC50 against PI3K-gamma, at human TOR and at PI3K-alpha were 214 nM, 8 nM and 3 nM, respectively.
For `COc1ccc2c(c1)c(/C=C1\Oc3cc(O)cc(O)c3C1=O)c(C(=O)N(C)C)n2CC(=O)N(C)C` [Example 325, 3-[(Z)-(4,6-Dihydroxy-3-oxo-1-benzofuran-2(3H)-ylidene)methyl]-1-[2-(dimethylamino)-2-oxoethyl]-5-methoxy-N,N-dimethyl-1H-indole-2-carboxamide], the IC50 turned out to be 298 nM against PI3K-gamma, 84 nM at human TOR and 281 nM on PI3K-alpha.
For `CCN1CCN(C(=O)c2ccc(NC(=O)Nc3ccc4c(c3)C(=O)/C(=C/c3c(-c5c(C)nn(C)c5C)[nH]c5ccc(OC)cc35)O4)cc2)CC1` [Compound 699, 1-{4-[(4-ethylpiperazin-1-yl)carbonyl]phenyl}-3-[(2Z)-2-{[5-methoxy-2-(1,3,5-trimethyl-1H-pyrazol-4-yl)-1H-indol-3-yl]methylidene}-3-oxo-2,3-dihydro-1-benzofuran-5-yl]urea], the IC50 on PI3K-gamma is 3 nM; at human TOR, 5 nM; on PI3K-alpha it was 0.4 nM.
For `CNC(=O)Nc1cc(C)c2c(c1)C(=O)/C(=C/c1c(C)n(CCN3CCN(C)CC3)c3ccc(OC)cc13)O2` [Compound 662, 1-[(2Z)-2-({5-methoxy-2-methyl-1-[2-(4-methylpiperazin-1-yl)ethyl]-1H-indol-3-yl}methylidene)-7-methyl-3-oxo-2,3-dihydro-1-benzofuran-5-yl]-3-methylurea] the same measures were 3070 nM, 1480 nM and 81.5 nM.
With `CC(C)Cn1c(-c2ccccc2)c(C=C2Oc3cc(O)cc(O)c3C2=O)c2ccccc21` [Example 150, 4,6-dihydroxy-2-[(1-isobutyl-2-phenyl-1H-indol-3-yl)methylene]-1-benzofuran-3(2H)-one], the IC50 stood at 2190 nM at PI3K-gamma, 6450 nM on human TOR and 2230 nM at PI3K-alpha.
